According to the NIST ThermoML archive (doi:10.1016/j.jct.2008.07.017):

Tests used:
[1] = Solid-liquid equilibrium temperature
[2] = Crystal 2; DTA

CCCCCCCCCCCCCCCCCCCC [eicosane]
[1], Crystal, DTA
Conditions | Solid-liquid equilibrium temperature [K]
33520 kPa | 318.15
55080 kPa | 323.15
76800 kPa | 328.15
99090 kPa | 333.15
150000 kPa | 344.91

CCCCCCCCCCCCCCCCCCCCCCCCCCCCCCCCCCCCCCCC [tetracontane]
Solid-liquid equilibrium temperature [K], [1]
Conditions | 10000 kPa | 35758 kPa | 48436 kPa | 50000 kPa | 68114 kPa | 73917 kPa | 90000 kPa | 112740 kPa | 130000 kPa
Crystal 1 | 357.34 | 363.15 | – | 367.26 | 371.15 | – | 376.58 | 381.15 | 385.22
Crystal 2 | 351.37 | – | 363.15 | 364.54 | – | 371.15 | – | – | –

Conditions | Triple point temperature [K]
[2] | 376.03

CCCCCCCCCCCCCCCCCCCCCCCC [tetracosane]
Solid-liquid equilibrium temperature [K], [1]
Conditions | 10000 kPa | 25000 kPa | 40000 kPa | 50000 kPa | 100000 kPa | 125000 kPa | 150000 kPa
Crystal 1, DTA | 326.74 | 330.4 | 333.86 | 336.12 | 346.93 | 352.26 | 357.28
Crystal 2, DTA | 324.24 | 328.4 | 332.37 | 334.94 | – | – | –

Conditions | Triple point temperature [K]
[2] | 339.59

CCCCCCCCCCCCCCCCCCCCCCCCCCCCCC [triacontane]
Solid-liquid equilibrium temperature [K], [1]
Conditions | 10000 kPa | 25000 kPa | 50000 kPa | 75000 kPa | 100000 kPa | 125000 kPa | 150000 kPa
Crystal 1, DTA | 341.68 | 345.34 | 351.45 | 357 | 362.54 | 367.76 | 372.97
Crystal 2, DTA | 338.9 | 343.03 | 349.8 | 356.07 | – | – | –

Conditions | Triple point temperature [K]
[2] | 361.27
